We go through one compound from patent US8518989B2, “Prodrugs of short-chain fatty acids and treatment methods” (Georgia Health Sciences University Research Institute, Inc., priority 2005, dated 2013).

What all share (assay type): cell-based
In one assay the target is T1, rat ATB^0,+ (Rattus norvegicus, UniProt Q334I2).
T1 sequence (Q334I2 1-640): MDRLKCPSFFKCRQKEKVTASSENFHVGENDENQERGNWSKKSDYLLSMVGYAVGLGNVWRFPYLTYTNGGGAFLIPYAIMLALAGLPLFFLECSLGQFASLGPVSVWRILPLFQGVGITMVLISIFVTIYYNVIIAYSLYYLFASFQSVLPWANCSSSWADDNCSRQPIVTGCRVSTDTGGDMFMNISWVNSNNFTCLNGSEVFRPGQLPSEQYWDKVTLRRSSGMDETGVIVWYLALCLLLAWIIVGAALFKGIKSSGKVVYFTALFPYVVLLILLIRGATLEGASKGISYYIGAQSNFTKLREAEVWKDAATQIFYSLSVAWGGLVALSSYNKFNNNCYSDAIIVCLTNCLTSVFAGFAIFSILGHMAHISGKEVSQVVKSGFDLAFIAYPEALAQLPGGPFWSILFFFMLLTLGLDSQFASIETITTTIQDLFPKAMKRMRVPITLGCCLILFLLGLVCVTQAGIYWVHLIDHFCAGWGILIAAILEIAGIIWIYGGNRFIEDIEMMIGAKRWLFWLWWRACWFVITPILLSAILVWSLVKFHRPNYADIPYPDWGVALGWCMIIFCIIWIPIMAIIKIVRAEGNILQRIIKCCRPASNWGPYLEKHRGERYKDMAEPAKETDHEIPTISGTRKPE
Kind of assay: Inhibition of ATB0,+-mediated 3H-glycine uptake in HRPE cells expressing cloned rat ATB0,+. Particulars: 5 mM; HRPE cells.

Assay [1] addresses T2, human SLC5A8 (Homo sapiens, UniProt Q8N695, F251V/V193I).
T2 construct: We amplified the coding region of SLC5A8 mRNA by RT-PCR using human intestinal mRNA as the template; expressed in transfected cells; host or cells: Xenopus laevis oocytes, 50 ng capped cRNA from the pGH19 construct
T2 sequence (Q8N695 1-610 V193I/F251V): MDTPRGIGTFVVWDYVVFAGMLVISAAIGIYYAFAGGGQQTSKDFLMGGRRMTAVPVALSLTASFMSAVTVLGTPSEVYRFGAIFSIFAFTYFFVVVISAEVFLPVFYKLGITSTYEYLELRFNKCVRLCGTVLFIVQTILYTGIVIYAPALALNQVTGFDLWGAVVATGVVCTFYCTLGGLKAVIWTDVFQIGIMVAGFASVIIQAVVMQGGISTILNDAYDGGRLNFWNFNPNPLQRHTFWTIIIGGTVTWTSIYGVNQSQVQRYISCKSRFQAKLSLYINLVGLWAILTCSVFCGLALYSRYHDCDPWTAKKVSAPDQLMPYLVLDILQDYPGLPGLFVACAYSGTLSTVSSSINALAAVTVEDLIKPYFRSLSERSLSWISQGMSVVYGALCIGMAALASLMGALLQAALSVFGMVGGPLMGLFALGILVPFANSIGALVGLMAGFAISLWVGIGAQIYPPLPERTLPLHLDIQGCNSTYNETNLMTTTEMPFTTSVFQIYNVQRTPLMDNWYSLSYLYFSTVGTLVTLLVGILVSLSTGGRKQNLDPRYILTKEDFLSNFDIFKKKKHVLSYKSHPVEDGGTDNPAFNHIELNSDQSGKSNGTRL
In words: Two-microelectrode voltage clamp of substrate-induced currents in SLC5A8-expressing oocytes. The protocol: (§1) The amplified human SLC5A8 cDNA was expressed heterologously in Xenopus oocytes by cRNA injection. Capped cRNA from SLC5A8 cDNA was synthesized using the mMESSAGE mMACHINE kit (Ambion Inc., Austin, Tex.). Mature oocytes (stage 1V or V) from Xenopus laevis were injected with 50 ng cRNA. Uninjected oocytes served as controls. The oocytes were used for uptake and electrophysiological studies 3-6 days after cRNA injection. Uptake of radiolabeled substrates in uninjected and cRNA-injected oocytes was determined as described previously (Fei, Y. J., et al., (1995) Biochemistry 34, 8744-8751).
(§2) Eight oocytes were used for each uptake measurement. Electrophysiological studies were performed by the two-microelectrode voltage clamp method (11. Wang, H., Fei, et al., (2000) Am. J. Physiol. 278:C1019-C1030; Inoue, K, et al. (2004) Biochem. J. 378:949-957).
Oocytes were perfused with a NaCl-containing buffer (100 mM NaCl, 2 mM KCl, 1 mM MgCl2, 1 mM CaCl2, 3 mM Hepes, 3 mM Mes, and 3 mM Tris, pH 7.5), followed by the same buffer containing different fatty acids. The membrane potential was clamped at −50 mV. The differences between the steady-state currents measured in the presence and absence of substrates were considered as the substrate-induced currents. To investigate the current-membrane potential (I—V) relationship, step changes in membrane potential were applied, each for a duration of 100 ms in 20-mV increments. The kinetic parameter K0.5 (i.e. the substrate concentration necessary for the induction of half-maxima) current) was calculated by fitting the values of the substrate-induced currents to Michaelis-Menten equation. The Na^+-activation kinetics was analyzed by measuring the substrate-specific currents in the presence of increasing concentrations of Na^+. The data were analyzed by the Hill equation to determine the Hill coefficient (h; the number of Na^+ ions involved in the activation process). The kinetic parameters were determined using the computer program Sigma Plot, version 6.0 (SPSS, Inc., Chicago, Ill.). Electrophysiological measurements of substrate-induced currents were repeated at least four times with separate oocytes. The data are presented as means±S.E. of these replicates.
The charge-to substrate transfer ratio was determined for propionate in four different oocytes as described previously (Wang, H., et al. (2000) Am. J. Physiol. 278:C1019-C1030 12. Inoue, K., Fei, Y. J., Zhuang, L., Gopal, E., Miyauchi, S., and Ganapathy, V. (2004) Biochem. J. 378:949-957). The oocytes were perfused with 25 μM propionate (unlabeled plus radiolabeled propionate), and inward currents were monitored over a period of 8-10 min. At the end of the experiment, the amount of propionate transported into the oocytes was calculated by measuring the radioactivity associated with the oocytes. The area within the curve describing the relationship between the time and inward current was integrated to calculate the charge transferred into the oocyte during incubation with propionate. The values for substrate transfer and charge transfer were used to determine the charge to substrate transfer ratio.

Assay [2] has as its target T2, human SLC5A8. In words: Uptake of radiolabeled short-chain fatty acids in Xenopus oocytes injected with SLC5A8 cRNA. Particulars: 1 h incubation. The protocol:
as §1, §2
Uptake of short-chain fatty acids in uninjected oocytes and in oocytes injected with SLC5A8 cRNA was measured with 1 h incubation. Concentration of substrates (labeled plus unlabeled) varied in the range of 50-500 μM depending on the specific radioactivity of the substrates. Eight oocytes were used for each uptake measurement. Data represent means±SE.

Structures are written as SMILES.

As for `CC(=O)O` [acetate], the “Inhibition of ATB0,+-mediated glycine transport (in words)” value on rat ATB^0,+ was “did not inhibit glycine transport”. Also, the “Relative magnitude of substrate-induced currents” value on human SLC5A8 [1] (5 mM, -50 mV) is “intermediate”. Also, the “K0.5 for SLC5A8” value on human SLC5A8 [1] (four oocytes) came out at 2.46 ± 0.89 mM. Moreover, at human SLC5A8 [2], the “Fold increase of uptake (cRNA-injected over uninjected)” value is on record as 1.8 fold. Moreover, on human SLC5A8 [2] (SLC5A8 cRNA-injected oocytes), the “Uptake, cRNA-injected oocytes” value was 0.059 ± 0.003. Besides, the “Uptake, uninjected oocytes” value on human SLC5A8 [2] (uninjected control oocytes) came out at 0.032 ± 0.001.
